From ChEMBL document CHEMBL5653615 (J Biol Chem, 2013)

Assays:
[1] = target: Calcium/calmodulin-dependent protein kinase type II subunit gamma (Homo sapiens) (UniProt Q13555); test: Inhibition of human CAMK2g at 500 nM by HotSpot assay relative to control
[2] = target: Calcium/calmodulin-dependent protein kinase type II subunit beta (Homo sapiens) (UniProt Q13554); test: Inhibition of human CAMK2b at 500 nM by HotSpot assay relative to control
[3] = target: T1, Myotonin-protein kinase (Homo sapiens) (UniProt Q09013); test: Inhibition of human DMPK at 500 nM by HotSpot assay relative to control
T1 sequence (whole entry): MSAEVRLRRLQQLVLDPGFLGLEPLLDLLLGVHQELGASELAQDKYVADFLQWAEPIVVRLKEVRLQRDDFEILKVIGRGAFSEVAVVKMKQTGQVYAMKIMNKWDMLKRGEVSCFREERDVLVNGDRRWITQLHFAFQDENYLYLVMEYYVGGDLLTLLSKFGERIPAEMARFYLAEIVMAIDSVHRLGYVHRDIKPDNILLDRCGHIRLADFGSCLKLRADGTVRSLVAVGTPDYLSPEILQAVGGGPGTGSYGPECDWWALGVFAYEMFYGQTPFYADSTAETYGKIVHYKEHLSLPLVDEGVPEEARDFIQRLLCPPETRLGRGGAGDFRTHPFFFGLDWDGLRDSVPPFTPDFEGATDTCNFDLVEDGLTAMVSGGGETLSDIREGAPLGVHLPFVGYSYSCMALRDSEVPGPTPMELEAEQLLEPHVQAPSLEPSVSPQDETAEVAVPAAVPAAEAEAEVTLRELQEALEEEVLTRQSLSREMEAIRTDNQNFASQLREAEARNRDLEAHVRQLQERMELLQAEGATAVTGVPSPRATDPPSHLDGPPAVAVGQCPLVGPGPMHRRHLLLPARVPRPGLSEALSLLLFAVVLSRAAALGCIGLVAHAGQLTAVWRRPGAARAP

[4] = target: T2, Ephrin type-B receptor 2 (Homo sapiens) (UniProt P29323); test: Inhibition of human EPHB2 at 500 nM by HotSpot assay relative to control
T2 sequence (whole entry): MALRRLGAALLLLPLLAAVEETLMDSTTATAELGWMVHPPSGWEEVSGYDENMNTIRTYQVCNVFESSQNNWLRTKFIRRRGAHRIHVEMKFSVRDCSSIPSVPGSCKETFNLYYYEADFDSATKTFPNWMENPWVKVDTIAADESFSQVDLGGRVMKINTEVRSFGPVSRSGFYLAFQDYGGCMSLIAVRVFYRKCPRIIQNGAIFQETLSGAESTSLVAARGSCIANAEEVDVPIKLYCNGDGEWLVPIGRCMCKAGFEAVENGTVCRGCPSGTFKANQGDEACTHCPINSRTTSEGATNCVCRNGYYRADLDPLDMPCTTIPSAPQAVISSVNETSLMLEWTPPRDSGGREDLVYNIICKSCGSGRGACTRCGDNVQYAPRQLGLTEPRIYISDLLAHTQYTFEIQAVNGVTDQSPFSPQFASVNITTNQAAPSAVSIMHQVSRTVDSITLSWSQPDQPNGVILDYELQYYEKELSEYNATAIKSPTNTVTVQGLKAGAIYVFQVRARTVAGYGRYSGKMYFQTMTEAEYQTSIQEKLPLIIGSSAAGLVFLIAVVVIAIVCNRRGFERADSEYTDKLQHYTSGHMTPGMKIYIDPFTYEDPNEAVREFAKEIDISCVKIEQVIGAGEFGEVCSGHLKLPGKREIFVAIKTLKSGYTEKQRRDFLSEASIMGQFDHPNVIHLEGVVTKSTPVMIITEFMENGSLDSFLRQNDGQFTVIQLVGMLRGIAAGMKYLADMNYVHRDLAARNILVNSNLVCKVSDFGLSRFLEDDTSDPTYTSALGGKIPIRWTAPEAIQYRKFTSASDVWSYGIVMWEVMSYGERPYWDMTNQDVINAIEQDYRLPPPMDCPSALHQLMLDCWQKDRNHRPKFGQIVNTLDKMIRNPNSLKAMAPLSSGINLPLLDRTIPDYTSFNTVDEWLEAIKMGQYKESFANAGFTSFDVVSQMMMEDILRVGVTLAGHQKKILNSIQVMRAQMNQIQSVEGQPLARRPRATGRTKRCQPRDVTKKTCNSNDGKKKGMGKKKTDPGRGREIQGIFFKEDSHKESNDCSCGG

[5] = target: T3, Tyrosine-protein kinase ITK/TSK (Homo sapiens) (UniProt Q08881); test: Inhibition of human ITK at 500 nM by HotSpot assay relative to control
T3 sequence (whole entry): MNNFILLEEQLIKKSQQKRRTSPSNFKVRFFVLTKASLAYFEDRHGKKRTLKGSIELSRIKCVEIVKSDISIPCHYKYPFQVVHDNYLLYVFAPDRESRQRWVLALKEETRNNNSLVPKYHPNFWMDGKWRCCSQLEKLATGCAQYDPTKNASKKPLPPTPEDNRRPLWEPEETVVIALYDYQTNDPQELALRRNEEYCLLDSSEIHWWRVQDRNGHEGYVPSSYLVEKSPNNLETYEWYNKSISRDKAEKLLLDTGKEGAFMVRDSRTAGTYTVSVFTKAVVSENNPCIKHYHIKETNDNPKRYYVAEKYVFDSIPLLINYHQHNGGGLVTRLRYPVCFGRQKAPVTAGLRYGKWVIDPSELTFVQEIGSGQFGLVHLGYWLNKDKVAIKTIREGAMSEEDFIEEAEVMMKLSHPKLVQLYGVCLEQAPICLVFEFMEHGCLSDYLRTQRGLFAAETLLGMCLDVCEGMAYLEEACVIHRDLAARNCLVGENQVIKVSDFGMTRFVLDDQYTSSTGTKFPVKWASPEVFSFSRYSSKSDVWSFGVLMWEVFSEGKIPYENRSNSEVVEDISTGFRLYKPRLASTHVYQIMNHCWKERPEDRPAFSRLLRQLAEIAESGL

[6] = target: Platelet-derived growth factor receptor alpha (Homo sapiens) (UniProt P16234); test: Inhibition of human PDGFRa at 500 nM by HotSpot assay relative to control
Platelet-derived growth factor receptor alpha (Homo sapiens), sequence (P16234 whole entry): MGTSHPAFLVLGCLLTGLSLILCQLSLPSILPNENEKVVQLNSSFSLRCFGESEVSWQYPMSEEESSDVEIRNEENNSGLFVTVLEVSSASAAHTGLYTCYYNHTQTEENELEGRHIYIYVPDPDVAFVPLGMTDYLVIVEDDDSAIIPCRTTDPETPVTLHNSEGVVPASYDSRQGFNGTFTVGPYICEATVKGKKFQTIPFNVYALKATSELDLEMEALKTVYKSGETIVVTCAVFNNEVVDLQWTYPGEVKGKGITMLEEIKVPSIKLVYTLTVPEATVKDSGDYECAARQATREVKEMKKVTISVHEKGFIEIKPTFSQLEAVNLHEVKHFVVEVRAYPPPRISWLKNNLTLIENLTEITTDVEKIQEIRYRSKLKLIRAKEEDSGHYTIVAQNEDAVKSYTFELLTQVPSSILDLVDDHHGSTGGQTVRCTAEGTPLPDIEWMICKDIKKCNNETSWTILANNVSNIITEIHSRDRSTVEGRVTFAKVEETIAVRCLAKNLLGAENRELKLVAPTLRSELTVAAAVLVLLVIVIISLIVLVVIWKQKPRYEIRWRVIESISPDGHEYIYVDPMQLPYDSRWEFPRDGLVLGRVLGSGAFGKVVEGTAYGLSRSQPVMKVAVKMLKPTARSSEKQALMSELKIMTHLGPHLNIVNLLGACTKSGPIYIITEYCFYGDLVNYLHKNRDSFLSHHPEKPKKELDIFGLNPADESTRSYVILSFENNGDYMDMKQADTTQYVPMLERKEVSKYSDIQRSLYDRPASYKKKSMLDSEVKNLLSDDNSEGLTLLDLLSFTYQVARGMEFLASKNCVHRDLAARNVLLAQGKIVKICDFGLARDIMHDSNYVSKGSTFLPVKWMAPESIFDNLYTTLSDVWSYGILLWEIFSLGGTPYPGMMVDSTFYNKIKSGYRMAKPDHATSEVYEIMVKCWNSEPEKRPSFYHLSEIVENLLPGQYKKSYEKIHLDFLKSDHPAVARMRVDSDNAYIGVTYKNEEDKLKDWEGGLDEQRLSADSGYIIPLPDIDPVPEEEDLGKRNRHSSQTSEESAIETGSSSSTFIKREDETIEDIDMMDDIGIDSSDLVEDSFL

Calcium/calmodulin-dependent protein kinase type II subunit gamma (Homo sapiens), sequence (Q13555 whole entry): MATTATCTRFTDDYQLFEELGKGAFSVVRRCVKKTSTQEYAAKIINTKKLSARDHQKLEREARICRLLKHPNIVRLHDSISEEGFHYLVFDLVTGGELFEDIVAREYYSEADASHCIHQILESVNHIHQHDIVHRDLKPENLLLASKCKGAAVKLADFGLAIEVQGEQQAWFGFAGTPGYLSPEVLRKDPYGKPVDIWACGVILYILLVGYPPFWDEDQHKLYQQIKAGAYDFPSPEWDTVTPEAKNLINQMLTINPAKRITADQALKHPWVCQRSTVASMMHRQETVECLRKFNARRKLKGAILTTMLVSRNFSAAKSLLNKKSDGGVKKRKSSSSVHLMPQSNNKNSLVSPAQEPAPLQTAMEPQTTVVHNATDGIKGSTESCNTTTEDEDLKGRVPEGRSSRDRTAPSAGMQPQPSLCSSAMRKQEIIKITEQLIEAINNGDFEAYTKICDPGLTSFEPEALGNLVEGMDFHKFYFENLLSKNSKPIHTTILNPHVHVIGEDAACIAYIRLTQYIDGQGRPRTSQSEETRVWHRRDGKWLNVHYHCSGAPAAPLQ
Calcium/calmodulin-dependent protein kinase type II subunit beta (Homo sapiens), sequence (Q13554 whole entry): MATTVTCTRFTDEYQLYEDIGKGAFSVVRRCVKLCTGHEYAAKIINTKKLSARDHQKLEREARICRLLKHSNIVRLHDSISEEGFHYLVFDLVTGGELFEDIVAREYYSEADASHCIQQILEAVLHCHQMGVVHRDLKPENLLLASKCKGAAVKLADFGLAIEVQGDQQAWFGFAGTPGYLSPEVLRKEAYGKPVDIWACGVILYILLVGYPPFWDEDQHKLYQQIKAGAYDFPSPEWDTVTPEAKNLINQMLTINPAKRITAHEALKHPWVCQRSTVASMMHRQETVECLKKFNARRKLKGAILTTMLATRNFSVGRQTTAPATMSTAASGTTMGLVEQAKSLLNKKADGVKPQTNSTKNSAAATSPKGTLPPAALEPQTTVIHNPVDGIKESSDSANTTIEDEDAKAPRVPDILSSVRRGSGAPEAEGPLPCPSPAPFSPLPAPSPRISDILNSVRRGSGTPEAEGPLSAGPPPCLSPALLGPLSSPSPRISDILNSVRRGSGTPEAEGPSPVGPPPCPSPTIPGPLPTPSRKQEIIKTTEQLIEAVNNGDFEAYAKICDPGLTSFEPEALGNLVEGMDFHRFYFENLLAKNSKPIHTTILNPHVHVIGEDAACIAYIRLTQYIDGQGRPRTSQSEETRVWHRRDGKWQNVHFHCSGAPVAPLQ

Structure (SMILES) | inhibition [1] | inhibition [2] | inhibition [3] | inhibition [4] | inhibition [5] | inhibition [6]
Nc1n[nH]c2nnc(-c3c(-c4ccccc4)nn4ccccc34)cc12 | 3.3% | -2.4% | -2.61% | 6.94% | 9.17% | 0.32%
Oc1n[nH]c2nnc(-c3c(-c4ccccc4)nn4ccccc34)cc12 | 2.06% | -1.77% | -3.39% | 5.22% | 6.55% | -1.33%
